# From US8536180B2, “Pyrimidine inhibitors of kinase activity” (AbbVie Inc., priority 2009, dated 2013)
# Target: T1, C-terminal GST-tagged, recombinant, human IGF-1R, amino acids 954-1367 (Homo sapiens, UniProt P08069)
# T1 construct: human IGF-1R, amino acids 954-1367 expressed by baculovirus in Sf21 cells; GST (C); purchased Cell Signaling Technology; host or cells: baculovirus in Sf21 cells
# Assay: IGF-1R homogenous time-resolved fluorescence (HTRF) in vitro kinase assay
# Format: biochemical
# Conditions: IGF-1R kinase, ATP 50 μM final, biotinylated peptide substrate 0.5 μM, 60 minutes at room temperature
# Method: IGF-1R kinase activity was assayed by a homogenous time-resolved fluorescence (HTRF) in vitro kinase assay (Mathis, G., HTRF(R) Technology. J Biomol Screen, 1999. 4(6): p. 309-314). Specifically, 10 μL C-terminal GST-tagged, recombinant, human IGF-1R, amino acids 954-1367 expressed by baculovirus in Sf21 cells (Cell Signaling Technology) was mixed with 10 μL inhibitor (various concentrations, 2% final DMSO) and 10 μL of ATP (50 μM final concentration) in reaction buffer (50 mM HEPES, pH 7.5, 10 mM MgCl2, 2 mM MnCl2, 0.1% BSA and 1 mM DTT, 40 μL final volume). The reaction was initiated by addition of 10 μL of biotinylated peptide substrate (Biotin-Ahx-[…], 0.5 μM final concentration) in a black 384-well plate (Packard). After 60 minutes incubation at room temperature, the reaction was quenched by addition of 60 μL stop/revelation buffer to give 30 mM EDTA, 1 μg/mL streptavidin-APC (Prozyme), 50 ng/mL anti-phosphotyrosine mAb PT66-K Europium Cryptate, 30 mM HEPES, pH 7.5, 120 mM KF, 0.005% Tween-20, 0.05% BSA). The quenched reaction was allowed to stand at room temperature for 1 hour and then read in a time-resolved fluorescence detector (Envision, Perkin Elmer) at 615 nm and 665 nm simultaneously. The ratio between the signal of 615 nm and 665 nm was used in the calculation of the IC50.
# T1 sequence (P08069 954-1367): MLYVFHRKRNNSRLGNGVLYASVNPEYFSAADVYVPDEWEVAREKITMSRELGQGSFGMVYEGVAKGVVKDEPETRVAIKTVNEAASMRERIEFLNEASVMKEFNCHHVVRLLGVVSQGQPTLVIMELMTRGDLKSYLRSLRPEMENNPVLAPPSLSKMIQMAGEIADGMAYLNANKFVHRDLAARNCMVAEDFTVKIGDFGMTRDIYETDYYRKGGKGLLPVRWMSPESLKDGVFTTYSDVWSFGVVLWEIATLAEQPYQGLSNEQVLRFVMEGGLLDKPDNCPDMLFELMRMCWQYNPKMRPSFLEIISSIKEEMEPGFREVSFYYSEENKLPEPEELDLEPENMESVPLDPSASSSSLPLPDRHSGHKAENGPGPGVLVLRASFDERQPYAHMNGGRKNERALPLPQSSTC
row,IC50 [nM],Structure (SMILES)
1,< 10,"CN(C)Cc1ccc(Nc2nccc(-c3c(-c4ccc5nc(Cc6ccccc6)[nH]c5c4)nc4sccn34)n2)cc1 [Example 57, 4-[6-(2-benzyl-1H-benzimidazol-6-yl)imidazo[2,1-b][1,3]thiazol-5-yl]-N-{4-[(dimethylamino)methyl]phenyl}pyrimidin-2-amine]"
2,< 10,"COc1cc(N2CCC(N(C)C)CC2)ccc1Nc1nccc(-c2c(-c3ccc4nc(Cc5ccccc5)[nH]c4c3)nc3sccn23)n1 [Example 30, 4-[6-(2-benzyl-1H-benzimidazol-6-yl)imidazo[2,1-b][1,3]thiazol-5-yl]-N-{4-[4-(dimethylamino)piperidin-1-yl]-2-methoxyphenyl}pyrimidin-2-amine]"
3,> 500,"CN(C)Cc1ccccc1Nc1nccc(-c2c(-c3ccc4nc(Cc5ccccc5)[nH]c4c3)nc3sccn23)n1 [Example 58, 4-[6-(2-benzyl-1H-benzimidazol-6-yl)imidazo[2,1-b][1,3]thiazol-5-yl]-N-{2-[(dimethylamino)methyl]phenyl}pyrimidin-2-amine]"
4,< 10,"CN(C)CCc1cccc(Nc2nccc(-c3c(-c4ccc5nc(Cc6ccccc6Cl)[nH]c5c4)nc4sccn34)n2)c1 [Example 9, 4-{6-[2-(2-chlorobenzyl)-1H-benzimidazol-6-yl]imidazo[2,1-b][1,3]thiazol-5-yl}-N-{3-[2-(dimethylamino)ethyl]phenyl}pyrimidin-2-amine]"
5,101 to 500,"Fc1ccc(Nc2nccc(-c3c(-c4ccc5[nH]c(Cc6ccccc6)nc5c4)nc4ccccn34)n2)c(F)c1 [Example 41, 4-[2-(2-benzyl-1H-benzimidazol-5-yl)imidazo[1,2-a]pyridin-3-yl]-N-(2,4-difluorophenyl)pyrimidin-2-amine]"
6,< 10,"CN(C)CCc1cccc(Nc2nccc(-c3c(-c4ccc5nc(Cc6ccccc6)[nH]c5c4)nc4ccccn34)n2)c1 [Example 2, 4-[2-(2-benzyl-1H-benzimidazol-6-yl)imidazo[1,2-a]pyridin-3-yl]-N-{3-[2-(dimethylamino)ethyl]phenyl}pyrimidin-2-amine]"
7,101 to 500,"CCn1cc(-c2ccnc(Nc3ccc(N4CCC(N(C)C)CC4)cc3OC)n2)c(-c2ccc3[nH]c(-c4ccccc4)nc3c2)n1 [Example 69, N-{4-[4-(dimethylamino)piperidin-1-yl]-2-methoxyphenyl}-4-[1-ethyl-3-(2-phenyl-1H-benzimidazol-5-yl)-1H-pyrazol-4-yl]pyrimidin-2-amine]"
8,< 10,"COc1cc(N2CCC(N(C)C)CC2)ccc1Nc1nccc(-c2c(-c3ccc4nc(Cc5ccccc5C)[nH]c4c3)nc3sccn23)n1 [Example 56, N-{4-[4-(dimethylamino)piperidin-1-yl]-2-methoxyphenyl}-4-{6-[2-(2-methylbenzyl)-1H-benzimidazol-6-yl]imidazo[2,1-b][1,3]thiazol-5-yl}pyrimidin-2-amine]"
9,101 to 500,"COc1ccc(C(F)(F)F)cc1Nc1nccc(-c2c(-c3ccc4nc(Cc5ccccc5)[nH]c4c3)nc3ccccn23)n1 [Example 45, 4-[2-(2-benzyl-1H-benzimidazol-6-yl)imidazo[1,2-a]pyridin-3-yl]-N-[2-methoxy-5-(trifluoromethyl)phenyl]pyrimidin-2-amine]"
10,< 10,"CN(C)CCc1cccc(Nc2nccc(-c3c(-c4ccc5nc(Cc6ccccc6)[nH]c5c4)nc4sccn34)n2)c1 [Example 7, 4-[6-(2-benzyl-1H-benzimidazol-6-yl)imidazo[2,1-b][1,3]thiazol-5-yl]-N-{3-[2-(dimethylamino)ethyl]phenyl}pyrimidin-2-amine]"
11,10 to 50,"CCn1cc(-c2ccnc(Nc3cccc(CN(C)C)c3)n2)c(-c2ccc3[nH]c(Cc4ccccc4)nc3c2)n1 [Example 63, 4-[3-(2-benzyl-1H-benzimidazol-5-yl)-1-ethyl-1H-pyrazol-4-yl]-N-{3-[(dimethylamino)methyl]phenyl}pyrimidin-2-amine]"
12,51 to 100,"CCn1cc(-c2ccnc(Nc3ccc(N4CCC(N(C)C)CC4)cc3OC)n2)c(-c2ccc3[nH]c(Cc4ccccc4OC)nc3c2)n1 [Example 68, N-{4-[4-(dimethylamino)piperidin-1-yl]-2-methoxyphenyl}-4-{1-ethyl-3-[2-(2-methoxybenzyl)-1H-benzimidazol-5-yl]-1H-pyrazol-4-yl}pyrimidin-2-amine]"
13,10 to 50,"CN(C)Cc1ccc(Nc2nccc(-c3c(-c4ccc5nc(Cc6ccccc6C(F)(F)F)[nH]c5c4)nc4sccn34)n2)cc1 [Example 46, N-{4-[(dimethylamino)methyl]phenyl}-4-(6-{2-[2-(trifluoromethyl)benzyl]-1H-benzimidazol-6-yl}imidazo[2,1-b][1,3]thiazol-5-yl)pyrimidin-2-amine]"
14,10 to 50,"COc1cc(N(C)C)ccc1Nc1nccc(-c2c(-c3ccc4nc(Cc5ccccc5Cl)[nH]c4c3)nc3sccn23)n1 [Example 33, N^1-(4-{6-[2-(2-chlorobenzyl)-1H-benzimidazol-6-yl]imidazo[2,1-b][1,3]thiazol-5-yl}pyrimidin-2-yl)-2-methoxy-N^4,N^4-dimethylbenzene-1,4-diamine]"
15,10 to 50,"c1ccc(Cc2nc3ccc(-c4nc5ccccn5c4-c4ccnc(Nc5cc(C6CC6)n[nH]5)n4)cc3[nH]2)cc1 [Example 26, 4-[2-(2-benzyl-1H-benzimidazol-6-yl)imidazo[1,2-a]pyridin-3-yl]-N-(3-cyclopropyl-1H-pyrazol-5-yl)pyrimidin-2-amine]"
16,101 to 500,"CCn1cc(-c2ccnc(Nc3ccccc3OC)n2)c(-c2ccc3[nH]c(Cc4ccccc4)nc3c2)n1 [Example 64, 4-[3-(2-benzyl-1H-benzimidazol-5-yl)-1-ethyl-1H-pyrazol-4-yl]-N-(2-methoxyphenyl)pyrimidin-2-amine]"
17,10 to 50,"COc1cc(N2CCOCC2)ccc1Nc1nccc(-c2c(-c3ccc4nc(Cc5c(F)cccc5F)[nH]c4c3)nc3ccccn23)n1 [Example 21, 4-{2-[2-(2,6-difluorobenzyl)-1H-benzimidazol-6-yl]imidazo[1,2-a]pyridin-3-yl}-N-(2-methoxy-4-morpholin-4-ylphenyl)pyrimidin-2-amine]"
18,< 10,"CN(C)CCc1cccc(Nc2nccc(-c3c(-c4ccc5[nH]c(Cc6ccccc6C(F)(F)F)nc5c4)nc4ccccn34)n2)c1 [Example 6, N-{3-[2-(dimethylamino)ethyl]phenyl}-4-(2-{2-[2-(trifluoromethyl)benzyl]-1H-benzimidazol-5-yl}imidazo[1,2-a]pyridin-3-yl)pyrimidin-2-amine]"
19,10 to 50,"OCCn1cc(Nc2nccc(-c3c(-c4ccc5[nH]c(-c6ccccc6)nc5c4)nc4ccccn34)n2)cn1 [Example 36, 2-[4-({4-[2(2-phenyl-1H-benzimidazol-5-yl)imidazo[1,2-a]pyridin-3-yl]pyrimidin-2-yl}amino)-1H-pyrazol-1-yl]ethanol]"
20,< 10,"COc1ccccc1Cc1nc2ccc(-c3nc4sccn4c3-c3ccnc(Nc4ccc(N5CCC(N(C)C)CC5)cc4OC)n3)cc2[nH]1 [Example 55, N-{4-[4-(dimethylamino)piperidin-1-yl]-2-methoxyphenyl}-4-{6-[2-(2-methoxybenzyl)-1H-benzimidazol-6-yl]imidazo[2,1-b][1,3]thiazol-5-yl}pyrimidin-2-amine]"
21,10 to 50,"CCn1cc(-c2ccnc(Nc3ccc(N4CCC(N(C)C)CC4)cc3OC)n2)c(-c2ccc3[nH]c(Cc4ccccc4)nc3c2)n1 [Example 66, 4-[3-(2-benzyl-1H-benzimidazol-5-yl)-1-ethyl-1H-pyrazol-4-yl]-N-{-4-[4-(dimethylamino)piperidin-1-yl]-2-methoxyphenyl}pyrimidin-2-amine]"
22,10 to 50,"CCn1cc(-c2ccnc(Nc3cccc(CN(C)C)c3)n2)c(-c2ccc3[nH]c(Cc4ccccc4Cl)nc3c2)n1 [Example 61, 4-{3-[2-(2-chlorobenzyl)-1H-benzimidazol-5-yl]-1-ethyl-1H-pyrazol-4-yl}-N-{3-[(dimethylamino)methyl]phenyl}pyrimidin-2-amine]"
23,51 to 100,"Cc1cc(Nc2nccc(-c3c(-c4ccc5nc(Cc6ccccc6)[nH]c5c4)nc4ccccn34)n2)n[nH]1 [Example 25, 4-[2-(2-benzyl-1H-benzimidazol-6-yl)imidazo[1,2-a]pyridin-3-yl]-N-(5-methyl-1H-pyrazol-3-yl)pyrimidin-2-amine]"
24,10 to 50,"COc1cc(NCC(C)(C)O)ccc1Nc1nccc(-c2c(-c3ccc4[nH]c(Cc5ccccc5)nc4c3)nc3ccccn23)n1 [Example 47, 1-{[4-({4-[2-(2-benzyl-1H-benzimidazol-5-yl)imidazo[1,2-a]pyridin-3-yl]pyrimidin-2-yl}amino)-3-methoxyphenyl]amino}-2-methylpropan-2-ol]"
25,51 to 100,"COc1ccccc1Nc1nccc(-c2c(-c3ccc4nc(Cc5ccccc5)[nH]c4c3)nc3ccccn23)n1 [Example 15, 4-[2-(2-benzyl-1H-benzimidazol-6-yl)imidazo[1,2-a]pyridin-3-yl]-N-(2-methoxyphenyl)pyrimidin-2-amine]"
26,10 to 50,"OCCn1cc(Nc2nccc(-c3c(-c4ccc5[nH]c(Cc6ccccc6)nc5c4)nc4ccccn34)n2)cn1 [Example 37, 2-[4-({4-[2(2-benzyl-1H-benzimidazol-5-yl)imidazo[1,2-a]pyridin-3-yl]pyrimidin-2-yl}amino)-1H-pyrazol-1-yl]ethanol]"
